The source of these data is ChEMBL document CHEMBL1201862, “PubChem BioAssay data set” (2004).

Some test systems named below: CCRF-CEM; SNB-19; Malme-3M; K562; NCI-H460; CAKI-1; DU-145; HL-60; EKVX; SK-MEL-5; BT-549; SF-295; SK-MEL-2; MOLT-4; SK-OV-3; KM12; A498; OVCAR-5; 786-0; UO-31.
Common to all, as to test: DTP human tumour cell line panel, 48 h

Structures are written as SMILES.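 1) Cells in 96-well plates. 2) Compound, 48 h, 5 concentrations. 3) Linear interpolation between surrounding doses. 4) Unreached endpoint = highest concentration. GI50 = concentration required for 50% inhibition of growth.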 Active and inactive are the calls of the source. No stated cut-off is given here; in the data, active = GI50 up to about 1.1 µM and inactive = higher. Some results are limits rather than exact numbers.

In the case of `O=C1NC(=O)C(c2c[nH]c3ccccc23)=C1c1cn(C(c2ccccc2)(c2ccccc2)c2ccccc2)cn1`, the GI50 is 3.98 µM (inactive) in the test with CCRF-CEM; 11.3 µM (inactive) in the test on SNB-19; 10.4 µM (inactive) in the test with Malme-3M; 4.2 µM (inactive) with K562; 3.66 µM (inactive) with NCI-H460; 35.4 µM (inactive) with CAKI-1. The GI50 was 19.6 µM (inactive) in the test with DU-145; 2.9 µM (inactive) with HL-60; 4.19 µM (inactive) in the test with EKVX; 7.57 µM (inactive) in the test on SK-MEL-5; 12.7 µM (inactive) with BT-549; 5.27 µM (inactive) with SF-295. The GI50 with SK-MEL-2 is 11.2 µM (inactive); in the test on MOLT-4, 2.48 µM (inactive); in the test with SK-OV-3, 14.7 µM (inactive); in the test with KM12, 4.06 µM (inactive); with A498, 5.32 µM (inactive); in the test with OVCAR-5, 8.73 µM (inactive). The GI50 in the test on 786-0 was 6.52 µM (inactive).
With `CCOC(=O)/C(=C\NCC(O)c1ccccc1)c1nc2ccccc2[nH]1` (stereo not drawn), the GI50 with CCRF-CEM was 13.6 µM (inactive); with SNB-19, 48.9 µM (inactive); in the test on Malme-3M, 25.6 µM (inactive); with K562 it was 19.8 µM (inactive); in the test with NCI-H460 it was 17.2 µM (inactive); with CAKI-1 it was 32.4 µM (inactive). The GI50 is 28.4 µM (inactive) in the test on DU-145; 13.6 µM (inactive) with HL-60; 21.3 µM (inactive) in the test on EKVX; 11 µM (inactive) in the test on SK-MEL-5; 29.9 µM (inactive) in the test on BT-549; 0.103 µM (active) in the test on UO-31. Further, the GI50 was 24.8 µM (inactive) in the test on SF-295; 11.8 µM (inactive) with MOLT-4; 31.8 µM (inactive) in the test with SK-OV-3; 21.6 µM (inactive) with KM12; 20.1 µM (inactive) in the test with A498; 26.4 µM (inactive) in the test on OVCAR-5. In addition, the GI50 in the test on 786-0 is 27.5 µM (inactive).
For `O=C(NNC(=S)Nc1ccccc1)c1csc(NC(=S)NC2CCCCC2)n1`, the GI50 in the test on CCRF-CEM was 54.8 µM (inactive); with Malme-3M, > 100 µM (inactive); with K562 it was > 10 µM (inactive); with CAKI-1 it was > 100 µM (inactive); with DU-145, > 100 µM (inactive); in the test with HL-60, > 100 µM (inactive). The GI50 is 20.1 µM (inactive) in the test with EKVX; 17.4 µM (inactive) in the test with SK-MEL-5; 33 µM (inactive) with BT-549; 16.1 µM (inactive) in the test with UO-31; > 100 µM (inactive) with SF-295; > 100 µM (inactive) with SK-MEL-2. The GI50 is 25.6 µM (inactive) in the test on MOLT-4; > 100 µM (inactive) in the test with SK-OV-3; > 100 µM (inactive) with KM12; > 100 µM (inactive) in the test with A498; > 100 µM (inactive) in the test on OVCAR-5; 68.7 µM (inactive) in the test on 786-0.
Consider `Cc1ccc([N+](=O)[O-])cc1S(=O)(=O)Nc1ccc(C2=NN(C(=O)c3ccccc3)C(c3ccccc3O)C2)cc1` (stereo not drawn), for which the GI50 with CCRF-CEM was 17.5 µM (inactive); in the test with SNB-19 it was 28.2 µM (inactive); in the test on Malme-3M, 12.6 µM (inactive); in the test on K562, 15.3 µM (inactive); in the test with CAKI-1 it was 17.6 µM (inactive); with DU-145 it was 20.2 µM (inactive). Further, the GI50 in the test on HL-60 was 18.6 µM (inactive); with EKVX, 12.6 µM (inactive); in the test with SK-MEL-5, 15.8 µM (inactive); in the test on BT-549 it was 14 µM (inactive); in the test on UO-31, 16.6 µM (inactive); in the test on SF-295, 23.4 µM (inactive). Also, the GI50 with SK-MEL-2 is 16.7 µM (inactive); with MOLT-4 it was 13.6 µM (inactive); in the test with SK-OV-3, 19.1 µM (inactive); in the test with KM12 it was 28.6 µM (inactive); with A498, 12.9 µM (inactive); in the test on OVCAR-5, 19.7 µM (inactive). The GI50 in the test on 786-0 is 14.4 µM (inactive).
As for `OC(CC(CC(O)(C(F)(F)F)C(F)(F)F)=NN=C(CC(O)(C(F)(F)F)C(F)(F)F)CC(O)(C(F)(F)F)C(F)(F)F)(C(F)(F)F)C(F)(F)F`, the GI50 in the test on CCRF-CEM, with SNB-19, in the test with Malme-3M, in the test with K562, in the test with NCI-H460 and with CAKI-1 was > 10 µM (inactive) each time. The GI50 in the test on DU-145, in the test with HL-60, in the test on EKVX, with SK-MEL-5, in the test with BT-549 and in the test on SF-295 was > 10 µM (inactive) throughout. The GI50 with SK-MEL-2, with MOLT-4, in the test with SK-OV-3, in the test with KM12, with A498 and with OVCAR-5 was > 10 µM (inactive) each time. In addition, in the test with 786-0, the GI50 is > 10 µM (inactive).
As to `CCNC(=S)N/N=C/c1cc([N+](=O)[O-])ccc1O`, the GI50 was 4.47 µM (inactive) in the test with CCRF-CEM; 34.1 µM (inactive) with SNB-19; 26.5 µM (inactive) in the test on Malme-3M; 20.6 µM (inactive) in the test on K562; 9.27 µM (inactive) in the test with NCI-H460; 83.4 µM (inactive) in the test with DU-145. Also, the GI50 is 11.9 µM (inactive) in the test with HL-60; 30.4 µM (inactive) with EKVX; 10.9 µM (inactive) in the test on SK-MEL-5; 36.9 µM (inactive) in the test on BT-549; 22.3 µM (inactive) in the test with UO-31; 35.6 µM (inactive) in the test with SF-295. Moreover, the GI50 in the test with SK-MEL-2 was > 100 µM (inactive); in the test on MOLT-4, 8.73 µM (inactive); with SK-OV-3, 15 µM (inactive); in the test with KM12, 23.8 µM (inactive); with A498, 13.2 µM (inactive); in the test on OVCAR-5, > 100 µM (inactive). Moreover, in the test with 786-0, the GI50 was 20.5 µM (inactive).
`COc1ccc2c(-c3ccc(O)cc3)c(Oc3ccccc3)c(=O)oc2c1`: the GI50 in the test on CCRF-CEM was 3.96 µM (inactive); in the test on Malme-3M, 9.44 µM (inactive); in the test on K562, 8.91 µM (inactive); in the test with NCI-H460, 11.9 µM (inactive); in the test on CAKI-1, 2.72 µM (inactive); in the test with DU-145 it was 4.58 µM (inactive). The GI50 is 7.96 µM (inactive) in the test with HL-60; 4.89 µM (inactive) in the test with EKVX; 3.95 µM (inactive) with SK-MEL-5; 95.9 µM (inactive) with BT-549; 3.13 µM (inactive) in the test on UO-31; 25.5 µM (inactive) with SF-295. Besides, the GI50 in the test on SK-MEL-2 is > 100 µM (inactive); with MOLT-4 it was 5.11 µM (inactive); in the test with SK-OV-3, 6.49 µM (inactive); with KM12, 14.6 µM (inactive); in the test on A498, > 31.4 µM (inactive); with OVCAR-5 it was > 24.4 µM (inactive). In addition, in the test on 786-0, the GI50 was 12.3 µM (inactive).
With `O=[N+]([O-])c1ccc(OP(=O)(O)OCC2OC(CP(=O)(O)O)C(O)C2O)cc1` (stereo not drawn), the GI50 with CCRF-CEM, with SNB-19, in the test with K562, in the test with NCI-H460, in the test on CAKI-1 and in the test with DU-145 was > 100 µM (inactive) in each case. The GI50 with HL-60, in the test with EKVX, in the test on SK-MEL-5, in the test on BT-549, in the test on UO-31 and in the test on SF-295 was > 100 µM (inactive) each time. In addition, the GI50 in the test with SK-MEL-2, in the test on MOLT-4, in the test on KM12, in the test on A498, in the test on OVCAR-5 and in the test with 786-0 was > 100 µM (inactive) throughout.
`COc1cc2cc(C(=O)N3CC(CCl)c4c3cc(O)c3ccccc43)[nH]c2c(OC)c1OC` (stereo not drawn): the GI50 in the test with CCRF-CEM, in the test with SNB-19, with Malme-3M, in the test with K562, in the test with NCI-H460 and with DU-145 was < 0.005 µM (active) each time. The GI50 in the test with HL-60, with EKVX, in the test on SK-MEL-5, in the test with BT-549, with UO-31 and in the test with SF-295 was < 0.005 µM (active) in each case. Moreover, the GI50 in the test on SK-MEL-2, with MOLT-4, with SK-OV-3, with KM12, in the test with A498 and with OVCAR-5 was < 0.005 µM (active) each time. The GI50 in the test with 786-0 was < 0.005 µM (active).
With `CC(C)(C)[Si](C)(C)OCc1cccc(OCCOc2cccc(CO[Si](C)(C)C(C)(C)C)c2[N+](=O)[O-])c1[N+](=O)[O-]`, the GI50 in the test on CCRF-CEM, with SNB-19, with Malme-3M, in the test with NCI-H460, in the test with CAKI-1 and in the test on DU-145 was > 100 µM (inactive) in each case. For the same compound, the GI50 in the test on HL-60, with EKVX, with SK-MEL-5, in the test with BT-549, in the test with UO-31 and with SF-295 was > 100 µM (inactive) throughout. In addition, the GI50 with SK-MEL-2, with MOLT-4, in the test with SK-OV-3, with KM12, with A498 and with OVCAR-5 was > 100 µM (inactive) in each case. The GI50 with 786-0 was > 100 µM (inactive).
